Patent US10376520B2, “Methods for the treatment of cardiovascular disorders” (Galapagos NV, priority 2015, dated 2019)

Tested on: RA patients
Test: [HDL] determination, Study 2 (RA patients, monotherapy)
Assay type: in vivo, human
Source text: Randomized, double-blind, placebo-controlled, multicenter, phase IIb dose finding study of Compound 1 (dosed as a [Compound 1:HCl:3H2O]) administered for 24 weeks as monotherapy to subjects with moderately to severely active rheumatoid arthritis who have an inadequate response to methotrexate alone
Double-blind, placebo-controlled, monotherapy study in subjects with moderately to severely active RA who have an inadequate response to methotrexate (MTX) (oral or parenteral).
280 subjects randomized to one of 3 doses of Compound 1 (dosed as a [Compound 1:HCl:3H2O]) or to placebo, given once daily (q.d.).
Twelve weeks of treatment with Compound 1 (dosed as a [Compound 1:HCl:3H2O]) at 50 mg, 100 mg, or 200 mg q.d.; or placebo. At Week 12, all subjects on placebo and the subjects on the 50 mg dose who have not achieved 20% improvement in swollen joint count (SJC66) and tender joint count (TJC68) will be assigned to 100 mg q.d. in a blinded fashion and will continue treatment until Week 24. Subjects in the other groups will maintain their randomized treatment until Week 24.
This assay relies on a homogeneous enzymatic colorimetric test. In the presence of magnesium ions, dextran sulfate selectively forms water-soluble complexes with LDL, VLDL and chylomicrons which are resistant to PEG-modified enzymes.
The cholesterol concentration of [HDL]-cholesterol is determined enzymatically by cholesterol esterase and cholesterol oxidase coupled with PEG to the amino groups (approx. 40%).
In the presence of peroxidase, the hydrogen peroxide generated reacts with 4-amino-antipyrine and Sodium N-(2-hydroxy-3-sulfopropyl)-3,5-dimethoxyaniline (HSDA) to form a purple-blue dye. The color intensity of this dye is directly proportional to the cholesterol concentration and is measured photometrically.
Human serum and plasma samples [HDL] determination was done on a Roche/Hitachi Cobas c 701/702 system which automatically calculate the analyte concentration of each sample. Samples containing precipitates are centrifuged before performing the assay.

[1] = placebo switching to 100 mg q.d. at week 12 (N = 72), week 16
[2] = placebo switching to 100 mg q.d. at week 12 (N = 72), week 20
[3] = placebo switching to 100 mg q.d. at week 12 (N = 72), week 24
[4] = placebo switching to 100 mg q.d. at week 12, week 16
[5] = placebo switching to 100 mg q.d. at week 12, week 20
[6] = placebo switching to 100 mg q.d. at week 12, week 24

## O=C(Nc1nc2cccc(-c3ccc(CN4CCS(=O)(=O)CC4)cc3)n2n1)C1CC1 [Compound 1, cyclopropanecarboxylic acid {5-[4-(1,1-dioxo-thiomorpholin-4-ylmethyl)-phenyl]-[1,2,4]triazolo[1,5-a]pyridin-2yl}-amide]
100 mg q.d. (N = 70), week 8
  [HDL] Mean CFB - 24 weeks results: 0.17 mmol/L
  [HDL] Median CFB: 0.140 mmol/L
  [HDL] Median CFB - 24 weeks results: 0.14 mmol/L
100 mg q.d. (N = 70), week 12
  [HDL] Mean CFB: 0.190 mmol/L
  [HDL] Mean CFB - 24 weeks results: 0.19 mmol/L
  [HDL] Median CFB: 0.150 mmol/L
  [HDL] Median CFB - 24 weeks results: 0.15 mmol/L
100 mg q.d. (N = 70), week 16
  [HDL] Mean CFB - 24 weeks results: 0.23 mmol/L
  [HDL] Median CFB - 24 weeks results: 0.20 mmol/L
100 mg q.d. (N = 70), week 20
  [HDL] Mean CFB - 24 weeks results: 0.19 mmol/L
  [HDL] Median CFB - 24 weeks results: 0.17 mmol/L
100 mg q.d. (N = 70), week 24
  [HDL] Mean CFB - 24 weeks results: 0.18 mmol/L
  [HDL] Median CFB - 24 weeks results: 0.18 mmol/L
100 mg q.d., week 1
  [HDL] Mean percentage CFB - 12 weeks results: 7.49%
  [HDL] Mean percentage CFB - 24 weeks results: 7.49%
  [HDL] Median percentage CFB - 12 weeks results: 3.27%
100 mg q.d., week 2
  [HDL] Mean percentage CFB - 12 weeks results: 11.30%
  [HDL] Mean percentage CFB - 24 weeks results: 11.30%
  [HDL] Median percentage CFB - 12 weeks results: 8.75%
100 mg q.d., week 4
  [HDL] Mean percentage CFB - 12 weeks results: 15.65%
  [HDL] Mean percentage CFB - 24 weeks results: 15.65%
  [HDL] Median percentage CFB - 12 weeks results: 12.66%
100 mg q.d., week 8
  [HDL] Mean percentage CFB - 12 weeks results: 13.77%
  [HDL] Mean percentage CFB - 24 weeks results: 13.77%
  [HDL] Median percentage CFB - 12 weeks results: 9.33%
100 mg q.d., week 12
  [HDL] Mean percentage CFB - 12 weeks results: 15.23%
  [HDL] Mean percentage CFB - 24 weeks results: 15.23%
  [HDL] Median percentage CFB - 12 weeks results: 11.86%
100 mg q.d., week 16
  [HDL] Median percentage CFB - 24 weeks results: 14.81%
100 mg q.d., week 20
  [HDL] Mean percentage CFB - 24 weeks results: 14.51%
  [HDL] Median percentage CFB - 24 weeks results: 13.29%
100 mg q.d., week 24
  [HDL] Mean percentage CFB - 24 weeks results: 15.18%
  [HDL] Median percentage CFB - 24 weeks results: 12.54%
200 mg q.d. (N = 69), week 1
  [HDL] Mean CFB: 0.026 mmol/L
  [HDL] Mean CFB - 24 weeks results: 0.03 mmol/L
  [HDL] Median CFB: 0.030 mmol/L
  [HDL] Median CFB - 24 weeks results: 0.03 mmol/L
200 mg q.d. (N = 69), week 2
  [HDL] Mean CFB: 0.163 mmol/L
  [HDL] Mean CFB - 24 weeks results: 0.16 mmol/L
  [HDL] Median CFB: 0.150 mmol/L
  [HDL] Median CFB - 24 weeks results: 0.15 mmol/L
200 mg q.d. (N = 69), week 4
  [HDL] Mean CFB: 0.220 mmol/L
  [HDL] Mean CFB - 24 weeks results: 0.22 mmol/L
  [HDL] Median CFB: 0.210 mmol/L
  [HDL] Median CFB - 24 weeks results: 0.21 mmol/L
200 mg q.d. (N = 69), week 8
  [HDL] Mean CFB: 0.219 mmol/L
  [HDL] Mean CFB - 24 weeks results: 0.22 mmol/L
  [HDL] Median CFB: 0.200 mmol/L
  [HDL] Median CFB - 24 weeks results: 0.20 mmol/L
200 mg q.d. (N = 69), week 12
  [HDL] Mean CFB: 0.194 mmol/L
  [HDL] Mean CFB - 24 weeks results: 0.19 mmol/L
  [HDL] Median CFB: 0.150 mmol/L
  [HDL] Median CFB - 24 weeks results: 0.15 mmol/L
200 mg q.d. (N = 69), week 16
  [HDL] Mean CFB - 24 weeks results: 0.19 mmol/L
  [HDL] Median CFB - 24 weeks results: 0.16 mmol/L
200 mg q.d. (N = 69), week 20
  [HDL] Mean CFB - 24 weeks results: 0.21 mmol/L
  [HDL] Median CFB - 24 weeks results: 0.16 mmol/L
200 mg q.d. (N = 69), week 24
  [HDL] Mean CFB - 24 weeks results: 0.19 mmol/L
  [HDL] Median CFB - 24 weeks results: 0.16 mmol/L
200 mg q.d., week 1
  [HDL] Mean percentage CFB - 12 weeks results: 2.04%
  [HDL] Mean percentage CFB - 24 weeks results: 2.04%
  [HDL] Median percentage CFB - 12 weeks results: 2.50%
200 mg q.d., week 2
  [HDL] Mean percentage CFB - 12 weeks results: 11.20%
  [HDL] Mean percentage CFB - 24 weeks results: 11.20%
  [HDL] Median percentage CFB - 12 weeks results: 9.92%
200 mg q.d., week 4
  [HDL] Mean percentage CFB - 12 weeks results: 15.68%
  [HDL] Mean percentage CFB - 24 weeks results: 15.68%
  [HDL] Median percentage CFB - 12 weeks results: 14.18%
200 mg q.d., week 8
  [HDL] Mean percentage CFB - 12 weeks results: 15.24%
  [HDL] Mean percentage CFB - 24 weeks results: 15.24%
  [HDL] Median percentage CFB - 12 weeks results: 16.35%
200 mg q.d., week 12
  [HDL] Mean percentage CFB - 12 weeks results: 14.60%
  [HDL] Mean percentage CFB - 24 weeks results: 14.60%
  [HDL] Median percentage CFB - 12 weeks results: 12.00%
200 mg q.d., week 16
  [HDL] Mean percentage CFB - 24 weeks results: 13.07%
200 mg q.d., week 20
  [HDL] Mean percentage CFB - 24 weeks results: 15.18%
  [HDL] Median percentage CFB - 24 weeks results: 11.54%
200 mg q.d., week 24
  [HDL] Mean percentage CFB - 24 weeks results: 13.79%
  [HDL] Median percentage CFB - 24 weeks results: 11.96%
[1]
  [HDL] Mean CFB - 24 weeks results: 0.19 mmol/L
  [HDL] Median CFB - 24 weeks results: 0.16 mmol/L
[2]
  [HDL] Mean CFB - 24 weeks results: 0.19 mmol/L
  [HDL] Median CFB - 24 weeks results: 0.18 mmol/L
[3]
  [HDL] Mean CFB - 24 weeks results: 0.16 mmol/L
  [HDL] Median CFB - 24 weeks results: 0.15 mmol/L
[4]
  [HDL] Mean percentage CFB - 24 weeks results: 16.36%
  [HDL] Median percentage CFB - 24 weeks results: 10.82%
[5]
  [HDL] Mean percentage CFB - 24 weeks results: 16.02%
  [HDL] Median percentage CFB - 24 weeks results: 13.11%
[6]
  [HDL] Mean percentage CFB - 24 weeks results: 13.47%
  [HDL] Median percentage CFB - 24 weeks results: 11.36%
